Results: patent US9920061B2, “Imidazo[1,5-A]pyrimidinyl carboxamide compounds and their use in the treatment of medical disorders” (Lysosomal Therapeutics Inc., priority 2016, dated 2018)
Values after ≈ are worked out from the molar mass of the structure shown. Like-named read-outs stand apart in the source and are kept apart here.

How the values were obtained:
[1] = target: T1, glucocerebrosidase (Gcase) (Homo sapiens, UniProt P04062); test: Glucocerebrosidase (Gcase) activation assay, 4-methylumbelliferyl-beta-D-glucopyranoside substrate, with saposin C; type: biochemical
T1 sequence (P04062 40-536): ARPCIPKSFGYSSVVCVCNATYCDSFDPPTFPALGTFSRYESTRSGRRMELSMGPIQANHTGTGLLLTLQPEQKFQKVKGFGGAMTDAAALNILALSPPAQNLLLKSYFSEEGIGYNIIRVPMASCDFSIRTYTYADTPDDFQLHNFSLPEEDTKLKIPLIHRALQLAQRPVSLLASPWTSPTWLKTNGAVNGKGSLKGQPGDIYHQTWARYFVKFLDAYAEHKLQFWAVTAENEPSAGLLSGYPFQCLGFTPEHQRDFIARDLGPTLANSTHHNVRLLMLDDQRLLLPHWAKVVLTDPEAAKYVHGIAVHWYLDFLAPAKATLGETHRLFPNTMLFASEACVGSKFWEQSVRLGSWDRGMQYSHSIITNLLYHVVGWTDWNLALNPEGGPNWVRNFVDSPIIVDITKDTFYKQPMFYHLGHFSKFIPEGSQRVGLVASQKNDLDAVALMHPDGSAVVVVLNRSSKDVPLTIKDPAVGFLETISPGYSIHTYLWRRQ
In short: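 Compounds tested at 1.0 and 0.1 μM, then in 8-point 3-fold curves, were pre-incubated 30 min at room temperature with 10 nM GCase plus 100 nM saposin C in PS/triton micelles, pH 4.7. Reaction with substrate (2 mM in micelles before mixing) ran 15 min; stopped at pH 12.5, read at ex 365/em 440 nm.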

[2] = Compound solubility in water; type: physicochemical
[3] = 0.1 μM test compound, read-out: Percent Gcase Activation 0.1 μM Test Compound
[4] = 1 μM test compound, read-out: Percent Gcase Activation 1 μM Test Compound
[5] = test compound at 0.1 μM, read-out: Percent Gcase Activation, 0.1 μM Test Compound
[6] = test compound at 1.0 μM, read-out: Percent Gcase Activation, 1 μM Test Compound

activation at 0.1 µM [1, 3]	activation at 1 µM [1, 4]	solubility [2]	activation at 0.1 µM [1, 5]	activation at 1 µM [1, 6]	solubility ([2]; in water)	SMILES
< 10%	30 to 60%	14.3 µg/mL (≈ 43.8 µM)				Cc1cc(OC2CC2)nc2c(C(=O)NC(C3CC3)C3CC3)ncn12 [III-179]
10 to 20%	> 60%	23.3 µg/mL (≈ 68.4 µM)				Cc1cc(OC2CCC2)nc2c(C(=O)NC(C3CC3)C3CC3)ncn12 [III-180]
> 20%	> 60%	1.5 µg/mL (≈ 3.71 µM)				COc1cccc(-c2cc(C)n3cnc(C(=O)NC(C4CC4)C(F)(F)F)c3n2)c1 (stereo not drawn) [III-182]
> 20%	> 60%	0.6 µg/mL (≈ 1.58 µM)				Cc1cc(-c2cccc(F)c2)nc2c(C(=O)NC(C)(C)C(F)(F)F)ncn12 [III-183]
> 20%	> 60%	4.3 µg/mL (≈ 11 µM)				COc1cccc(-c2cc(C)n3cnc(C(=O)NC(C)(C)C(F)(F)F)c3n2)c1 [III-184]
> 20%	> 60%	3.7 µg/mL (≈ 9.32 µM)				Cc1cc(-c2cccc(Cl)c2)nc2c(C(=O)NC(C)(C)C(F)(F)F)ncn12 [III-185]
> 20%	> 60%	1.5 µg/mL (≈ 4.01 µM)				C#CC(C)(C)NC(=O)c1ncn2c(C)cc(-c3cccc(OC4CC4)c3)nc12 [III-186]
> 20%	> 60%	0.9 µg/mL (≈ 2.46 µM)				C#CC(C)(C)NC(=O)c1ncn2c(C)cc(-c3cc(F)cc(OC)c3)nc12 [III-187]
10 to 20%	> 60%	0.3 µg/mL (≈ 0.847 µM)				C#CC(C)(C)NC(=O)c1ncn2c(C)cc(-c3cc(F)cc(F)c3)nc12 [III-188]
			10 to 20%	> 60%	8.3 µg/mL (≈ 23.7 µM)	COc1cccc(-c2cc(C)n3cnc(C(=O)N[C@H](C)C4CC4)c3n2)c1 [IV-1]
			> 20%	> 60%	27.5 µg/mL (≈ 68.7 µM)	CCCCO[C@H]1C[C@H]2CC[C@@H](C1)[C@H]2NC(=O)c1ncn2c(COC)cc(C)nc12 [IV-2]
			< 10%	30 to 60%	15.3 µg/mL (≈ 38.2 µM)	CCCCO[C@H]1C[C@H]2CC[C@@H](C1)[C@@H]2NC(=O)c1ncn2c(COC)cc(C)nc12 [IV-3]
			> 20%	> 60%	16.4 µg/mL (≈ 40.9 µM)	CCCCO[C@H]1C[C@H]2CC[C@@H](C1)[C@H]2NC(=O)c1ncn2c(C)cc(COC)nc12 [IV-4]
			< 10%	> 60%	24.3 µg/mL (≈ 60.7 µM)	CCCCO[C@H]1C[C@H]2CC[C@@H](C1)[C@@H]2NC(=O)c1ncn2c(C)cc(COC)nc12 [IV-5]
			< 10%	30 to 60%	15.1 µg/mL (≈ 36.2 µM)	Cc1cc(NC(=O)c2ccccc2)nc2c(C(=O)NC(C3CC3)C(F)(F)F)ncn12 (stereo not drawn) [IV-6]
			10 to 20%	> 60%	9.9 µg/mL (≈ 26 µM)	Cc1cc(-c2ccns2)nc2c(C(=O)N[C@H](C3CC3)C(F)(F)F)ncn12 [IV-7]
			10 to 20%	> 60%	19.7 µg/mL (≈ 51.7 µM)	Cc1cc(-c2ccns2)nc2c(C(=O)N[C@@H](C3CC3)C(F)(F)F)ncn12 [IV-8]
			< 10%	30 to 60%	3.9 µg/mL (≈ 10.7 µM)	Cc1cc(-c2ccon2)nc2c(C(=O)NC(C3CC3)C(F)(F)F)ncn12 (stereo not drawn) [IV-9]
			> 20%	> 60%	1 µg/mL (≈ 2.7 µM)	Cc1cc(C)n2cnc(C(=O)N[C@H]3[C@@H]4CC[C@H]3C[C@@H](OC(C)(C)C)C4)c2n1 [IV-10]
			> 20%	> 60%	4.9 µg/mL (≈ 13.2 µM)	Cc1cc(C)n2cnc(C(=O)N[C@@H]3[C@@H]4CC[C@H]3C[C@@H](OC(C)(C)C)C4)c2n1 [IV-11]
			> 20%	> 60%	1.9 µg/mL (≈ 4.69 µM)	COc1cccc(-c2cc(C)n3cnc(C(=O)N[C@H](C4CC4)C(F)(F)F)c3n2)n1 [IV-13]
			> 20%	> 60%	3.2 µg/mL (≈ 7.89 µM)	COc1cccc(-c2cc(C)n3cnc(C(=O)N[C@@H](C4CC4)C(F)(F)F)c3n2)n1 [IV-14]
			10 to 20%	> 60%	2.1 µg/mL (≈ 4.87 µM)	Cc1cc(-c2cccc(OC3CC3)n2)nc2c(C(=O)NC(C3CC3)C(F)(F)F)ncn12 (stereo not drawn) [IV-15]
			10 to 20%	> 60%	24.6 µg/mL (≈ 56.1 µM)	CCc1cc(N2CCN(C(C)C)C2=O)nc2c(C(=O)NC(C3CC3)C(F)(F)F)ncn12 (stereo not drawn) [IV-16]
			> 20%	> 60%	1.1 µg/mL (≈ 2.65 µM)	Cc1cc(-c2cccc3ncoc23)nc2c(C(=O)N[C@H](C3CC3)C(F)(F)F)ncn12 [IV-17]

activation at 0.1 µM [1, 3]	activation at 1 µM [1, 4]	solubility [2]	activation at 0.1 µM [1, 5]	activation at 1 µM [1, 6]	solubility ([2]; in water)	SMILES
			> 20%	> 60%	0.4 µg/mL (≈ 0.963 µM)	Cc1cc(-c2cccc3ncoc23)nc2c(C(=O)N[C@@H](C3CC3)C(F)(F)F)ncn12 [IV-18]
			> 20%	> 60%	0.7 µg/mL (≈ 1.78 µM)	Cc1cc(-c2cccc(F)c2)nc2c(C(=O)N[C@H](C3CC3)C(F)(F)F)ncn12 [IV-19]
			> 20%	> 60%	0.7 µg/mL (≈ 1.78 µM)	Cc1cc(-c2cccc(F)c2)nc2c(C(=O)N[C@@H](C3CC3)C(F)(F)F)ncn12 [IV-20]
			10 to 20%	> 60%	2.7 µg/mL (≈ 7.14 µM)	COc1cccc(-c2cc(C)n3cnc(C(=O)N[C@H](C)C(F)(F)F)c3n2)c1 [IV-21]
			> 20%	> 60%	1.7 µg/mL (≈ 4.49 µM)	COc1cccc(-c2cc(C)n3cnc(C(=O)N[C@@H](C)C(F)(F)F)c3n2)c1 [IV-22]
			10 to 20%	> 60%	0.6 µg/mL (≈ 1.57 µM)	C#CC(NC(=O)c1ncn2c(C)cc(-c3ccccc3C#N)nc12)C(F)(F)F (stereo not drawn) [IV-23]
			< 10%	< 30%	2.5 µg/mL (≈ 6.98 µM)	C#CC(C)(C)NC(=O)c1ncn2c(C)cc(-c3cccc4nccn34)nc12 [IV-24]
			< 10%	< 30%	3.3 µg/mL (≈ 7.96 µM)	Cc1cc(-c2cccc3nccn23)nc2c(C(=O)NC(C3CC3)C(F)(F)F)ncn12 (stereo not drawn) [IV-25]
			10 to 20%	> 60%	0.5 µg/mL (≈ 1.38 µM)	C#CC(C)(C)NC(=O)c1ncn2c(C)cc(-c3ccc4c(c3)OCO4)nc12 [IV-26]
			< 10%	< 30%	1.1 µg/mL (≈ 3.04 µM)	C#CC(C)(C)NC(=O)c1ncn2c(C)cc(-c3cccc4c3OCO4)nc12 [IV-27]
			> 20%	> 60%	1.1 µg/mL (≈ 3.02 µM)	Cc1cc(-c2ccc3c(c2)OCO3)nc2c(C(=O)N[C@@H](C)C3CC3)ncn12 [IV-28]
			> 20%	> 60%	1.1 µg/mL (≈ 3.02 µM)	Cc1cc(-c2ccc3c(c2)OCO3)nc2c(C(=O)N[C@H](C)C3CC3)ncn12 [IV-29]
			> 20%	> 60%	0.5 µg/mL (≈ 1.37 µM)	Cc1cc(-c2cccc3c2OCO3)nc2c(C(=O)N[C@@H](C)C3CC3)ncn12 [IV-30]
			10 to 20%	> 60%	1.4 µg/mL (≈ 3.84 µM)	Cc1cc(-c2cccc3c2OCO3)nc2c(C(=O)N[C@H](C)C3CC3)ncn12 [IV-31]
			> 20%	> 60%	0.6 µg/mL (≈ 1.48 µM)	Cc1cc(-c2cscc2C#N)nc2c(C(=O)NC(C3CC3)C(F)(F)F)ncn12 (stereo not drawn) [IV-32]
			> 20%	> 60%	0.7 µg/mL (≈ 1.8 µM)	Cc1cc(-c2ccc(C#N)o2)nc2c(C(=O)NC(C3CC3)C(F)(F)F)ncn12 (stereo not drawn) [IV-33]
			> 20%	> 60%	0.5 µg/mL (≈ 1.2 µM)	Cc1cc(-c2cccc(C#N)c2F)nc2c(C(=O)NC(C3CC3)C(F)(F)F)ncn12 (stereo not drawn) [IV-36]
			> 20%	> 60%	2.4 µg/mL (≈ 5.92 µM)	Cc1cc(-c2sccc2C#N)nc2c(C(=O)NC(C3CC3)C(F)(F)F)ncn12 (stereo not drawn) [IV-37]
			> 20%	> 60%	0.4 µg/mL (≈ 0.958 µM)	Cc1cc(-c2cccc(F)c2C#N)nc2c(C(=O)NC(C3CC3)C(F)(F)F)ncn12 (stereo not drawn) [IV-38]
			< 10%	30 to 60%	0.3 µg/mL (≈ 0.749 µM)	Cc1cc(-c2cccc(C#N)n2)nc2c(C(=O)NC(C3CC3)C(F)(F)F)ncn12 (stereo not drawn) [IV-39]
			< 10%	30 to 60%	15.4 µg/mL (≈ 37.3 µM)	Cc1cc(-c2ccccc2CC#N)nc2c(C(=O)NC(C3CC3)C(F)(F)F)ncn12 (stereo not drawn) [IV-40]
			< 10%	30 to 60%	3.5 µg/mL (≈ 8.43 µM)	Cc1cc(-c2cccc3ncnn23)nc2c(C(=O)NC(C3CC3)C(F)(F)F)ncn12 (stereo not drawn) [IV-41]
			< 10%	> 60%	2.1 µg/mL (≈ 5.06 µM)	Cc1cc(-c2cccn3cnnc23)nc2c(C(=O)NC(C3CC3)C(F)(F)F)ncn12 (stereo not drawn) [IV-42]
			< 10%	< 30%	17.5 µg/mL (≈ 42.1 µM)	Cc1cc(-c2ccc3nncn3c2)nc2c(C(=O)NC(C3CC3)C(F)(F)F)ncn12 (stereo not drawn) [IV-43]
